Laboratory results: publication PMC7344389, “Discovery of Anti-Amoebic Inhibitors from Screening the MMV Pandemic Response Box on Balamuthia mandrillaris, Naegleria fowleri, and Acanthamoeba castellanii” (Pathogens, 2020)
“And” between values parts separate entries of the source, which are not always exact repeats. Equal values may be shown once. Read-outs that look alike come from different tables or passages of the source.

How the values were obtained:
Format in all cases: cell-based
[1] = tested on: Acanthamoeba castellanii trophozoites; test: CellTiter-Glo 2.0 trophocidal assay, A. castellanii; details: for IC50: CTG method, 72 h, duplicate twofold serial dilutions from 10 µM, mean ± SD; for Selectivity Index (A549 IC50/A. castellanii IC50): SI = (IC50 A549)/(IC50 Amoeba); for potency against A. castellanii, in words: dose-response, CTG
Method: This isolate was also purchased from ATCC. Trophozoites were routinely grown axenically at 27 °C in Protease Peptone-Glucose Media (PG) in non-vented 75 cm^2 tissue culture flasks (Olympus, El Cajon, CA, USA), until the cells were 80–90% confluent. For sub-culturing, cells were mechanically harvested to detach the cells from the culture flasks. The cells were collected by centrifugation at 4000 rpm at 4 °C.
The trophocidal activity of compounds was assessed using the CellTiter-Glo 2.0 luminescent viability assay (Promega, Madison, WI, USA), as previously described. Trophozoites were routinely cultured as described above and only logarithmic trophozoites were used. […] Initially all compounds were assessed in a single-point drug screen at 10 and 1 μM, as previously described. […] We used this process to reduce the number of potential false positives. Drugs were cherry-picked, dissolved in the media specific to each parasite, and assessed in twofold serial dilutions from the highest concentration of 10 μM. All assays were incubated at each of the parasites’ representative growth temperatures, described above, for 72 h. At the 72 h time point, 25 μL of CellTiter-Glo 2.0 reagent was added to all wells of the 96-well plates using the Biomek NX^P automated workstation. The plates were protected from light and contents were mixed using an orbital shaker at 300 rpm at room temperature for 2 min to induce cell lysis. After shaking, the plates were equilibrated at room temperature for 10 min to stabilize the luminescent signal. The adenosine triphosphate (ATP) luminescent signal (relative light units; RLUs) was measured at 490 nm with a SpectraMax I3X plate reader (Molecular Devices, Sunnyvale, CA, USA). Drug inhibitory concentration (IC50) curves were generated using total ATP RLUs, where controls were calculated as the average of replicates using the Levenberg–Marquardt algorithm, using DMSO as the normalization control, as defined in Collaborative Drug Discovery Inc. (CDD) Vault (Burlingame, CA, USA). Values reported are from a minimum of two biological replicates with standard deviations.

[2] = tested on: Naegleria fowleri trophozoites; test: CellTiter-Glo 2.0 trophocidal assay, N. fowleri; details: CTG method, 72 h, duplicate twofold serial dilutions from 10 µM, mean ± SD; read-out: N. fowleri Mean IC50 (µM) ± SD
Method: Pathogenic Naegleria fowleri (ATCC 30215), a clinical isolate obtained from a child in Adelaide, Australia, that died of PAM in 1969 was previously purchased from the American Type Culture Collection (ATCC). Trophozoites were routinely grown axenically at 34 °C in Nelson’s complete medium (NCM) in non-vented 75 cm^2 tissue culture flasks (Olympus, El Cajon, CA, USA), until the cells were 80–90% confluent. For sub-culturing, cells were placed on ice to detach the cells from the culture flasks. The cells were collected by centrifugation at 4000 rpm at 4 °C. Complete NCM media is produced by the addition of 10% FBS and 125 μg of penicillin/streptomycin antibiotics.
The trophocidal activity of compounds was assessed using the CellTiter-Glo 2.0 luminescent viability assay (Promega, Madison, WI, USA), as previously described. Trophozoites were routinely cultured as described above and only logarithmic trophozoites were used. In brief, B. mandrillaris, N. fowleri, or A. castellanii trophozoites cultured in their corresponding media were seeded at 16,000, 3000, or 1440 cells/well into white 96-well plates (Costar 3370), respectively. Initially all compounds were assessed in a single-point drug screen at 10 and 1 μM, as previously described. […] Control wells were supplemented with 0.1% (10 μM screening plate) or 0.01% (1 μM screening plate) DMSO, as the negative controls, or 12.5 μM of chlorhexidine, as the positive control. Following the single-point assays at 10 and 1 µM, we prioritized compounds for progression to IC50 determinations. […] We used this process to reduce the number of potential false positives. Drugs were cherry-picked, dissolved in the media specific to each parasite, and assessed in twofold serial dilutions from the highest concentration of 10 μM. All assays were incubated at each of the parasites’ representative growth temperatures, described above, for 72 h. At the 72 h time point, 25 μL of CellTiter-Glo 2.0 reagent was added to all wells of the 96-well plates using the Biomek NX^P automated workstation. The plates were protected from light and contents were mixed using an orbital shaker at 300 rpm at room temperature for 2 min to induce cell lysis. After shaking, the plates were equilibrated at room temperature for 10 min to stabilize the luminescent signal. The adenosine triphosphate (ATP) luminescent signal (relative light units; RLUs) was measured at 490 nm with a SpectraMax I3X plate reader (Molecular Devices, Sunnyvale, CA, USA). Drug inhibitory concentration (IC50) curves were generated using total ATP RLUs, where controls were calculated as the average of replicates using the Levenberg–Marquardt algorithm, using DMSO as the normalization control, as defined in Collaborative Drug Discovery Inc. (CDD) Vault (Burlingame, CA, USA). Values reported are from a minimum of two biological replicates with standard deviations.

[3] = tested on: Balamuthia mandrillaris trophozoites; test: CellTiter-Glo 2.0 trophocidal assay, B. mandrillaris; details: for IC50: CTG method, 72 h, duplicate twofold serial dilutions from 10 µM, mean ± SD; for potency against B. mandrillaris, in words: dose-response, CTG; for Selectivity Index (A549 IC50/B. mandrillaris IC50): SI = (IC50 A549)/(IC50 Amoeba)
Method: Pathogenic Balamuthia mandrillaris (CDC:[…]; American Type Culture Collection (ATCC) 50209), a GAE isolate, isolated from a pregnant baboon at the San Diego Zoo in 1986 was donated by Luis Fernando […] University, Mexico [43]. Trophozoites were routinely grown axenically in Balamuthia mandrillaris Itson (BMI) media at 37 °C, 5% CO2 in vented 75 cm^2 tissue culture flasks (Olympus, El Cajon, CA, USA), until the cells were 80-90% confluent. For sub-culturing, 0.25% Trypsin-EDTA (Gibco, Gaithersburg, MD, USA) cell detachment reagent was used to detach the cells from the culture flasks. The cells were collected by centrifugation at 4000 rpm at 4 °C. Complete BMI media is produced by the addition of 10% fetal bovine serum (FBS) and 125 μg of penicillin/streptomycin antibiotics. The trophocidal activity of compounds was assessed using the CellTiter-Glo 2.0 luminescent viability assay (Promega, Madison, WI, USA), as previously described. Trophozoites were routinely cultured as described above and only logarithmic trophozoites were used. […] Inhibitors were assessed for percent inhibition using the criteria of ≤33% growth inhibition (no inhibition), 33-67% growth inhibition (moderate inhibition), and ≥67% growth inhibition (strong inhibition). […] We used this process to reduce the number of potential false positives. […] All assays were incubated at each of the parasites' representative growth temperatures, described above, for 72 h. At the 72 h time point, 25 μL of CellTiter-Glo 2.0 reagent was added to all wells of the 96-well plates using the Biomek NX^P automated workstation. The plates were protected from light and contents were mixed using an orbital shaker at 300 rpm at room temperature for 2 min to induce cell lysis. After shaking, the plates were equilibrated at room temperature for 10 min to stabilize the luminescent signal. The adenosine triphosphate (ATP) luminescent signal (relative light units; RLUs) was measured at 490 nm with a SpectraMax I3X plate reader (Molecular Devices, Sunnyvale, CA, USA). Drug inhibitory concentration (IC50) curves were generated using total ATP RLUs, where controls were calculated as the average of replicates using the Levenberg-Marquardt algorithm, using DMSO as the normalization control, as defined in Collaborative Drug Discovery Inc. (CDD) Vault (Burlingame, CA, USA). Values reported are from a minimum of two biological replicates with standard deviations.

[4] = tested on: A549 human lung carcinoma cells; test: MTS cytotoxicity counter-screen of reconfirmed hits
Method: Cytotoxicity of the reconfirmed hits was determined by using the CellTiter 96® AQueous One Solution Cell Proliferation Assay (Promega, Madison, WI) on A549 human lung carcinoma cells. A549 cells were seeded at a concentration of 1.6 × 10^4 cells/mL in 96-well tissue culture plates (Corning, NY, USA), in the presence of serially diluted active hits against B. mandrillaris, N. fowleri, or A. castellanii. Positive control wells contained cells and media; negative control wells contained 0.1% DMSO. Cells were grown in F12K medium supplemented with 10% FBS and 1% gentamycin (all supplied from Fisher Scientific, Atlanta, GA, USA). The inhibitor concentration started at 10 µM and was diluted in doubling dilutions to assess cytotoxicity in comparison to the respective free-living amoeba. Total volume of each well was 100 µL and plates were incubated at 37 °C, 5% CO2 for 72 h. Next, 4 h before the time-point, 20 µL of MTS (Promega, Madison, WI, USA) was added to each well. Inhibition of A549 growth was assessed at the 72 h time-point measuring the optical density (OD) values at 490 nm using a SpectraMax I3X plate reader (Molecular Devices, Sunnyvale, CA, USA). Curve fitting using non-linear regression was carried out using the average of replicates and the Levenberg–Marquardt algorithm, using DMSO as the normalization control, as defined in CDD Vault (Burlingame, CA, USA).

[5] = MTS assay, 72 h, doubling dilutions from 10 µM, read-out: A549 Mean IC50
[6] = Homo sapiens, A549, MTS assay, 72 h, doubling dilutions from 10 µM, read-out: A549 Mean IC50

| SMILES | IC50 [1] [µM] | IC50 [3] | IC50 [4, 5] [µM] | IC50 [4, 6] [µM] | further results |
| --- | --- | --- | --- | --- | --- |
| O=C1C=C(c2ccccc2)S(=O)(=O)c2ccccc21 [1,1-dioxide 1-thioflavone] | > 10 | 0.37 ± 0.01 µM | > 10 | – | IC50 [2]: 5 µM; potency against B. mandrillaris, in words [3]: nanomolar potency |
| Clc1ccc(Cn2c(CN3CCCC3)nc3ccccc32)cc1 [Clemizole] | – | 8.95 ± 1.48 µM | – | > 10 | IC50 ([3]; Balamuthia mandrillaris): ≤ 10 µM; Selectivity Index (A549 IC50/B. mandrillaris IC50) [3]: ≥1.12 |
| Clc1cc(Cl)c2c(c1)CCc1ccccc1C2n1ccnc1 (centres unmarked) [Eberconazole] | 3.7 ± 1.13 | > 10 µM | > 10 | – | IC50 ([1]; listed as eberconazole): ≤ 10 µM; IC50 [2]: 1.22 ± 0.66 µM |
| O=[N+]([O-])/C(Br)=C/c1ccc(Br)o1 [Furvina] | 4.2 ± 0.85 | – | > 10 | – | IC50 ([1]; listed as furvina): ≤ 10 µM |
| CNCC(=O)OCc1cccnc1N(C)C(=O)OC(C)[n+]1cnn(C[C@](O)(c2cc(F)ccc2F)[C@@H](C)c2nc(-c3ccc(C#N)cc3)cs2)c1 (some centres unmarked) [Isavuconazonium] | – | – | – | > 10 | IC50 ([1]; Acanthamoeba castellanii): 0.09 ± 0.02 µM; Selectivity Index (A549 IC50/A. castellanii IC50) [1]: ≥105; Selectivity Index (A549 IC50/A. castellanii IC50) ([1]; listed as isavuconazonium): ≥ 10; potency against A. castellanii, in words [1]: nanomolar potency |
| CC(=O)N1CCN(c2ccc(OCC3COC(Cn4ccnc4)(c4ccc(Cl)cc4Cl)O3)cc2)CC1 (centres unmarked) [Ketoconazole] | 1.24 ± 0.8 | – | – | > 10 | IC50 ([1]; listed as ketoconazole): ≤ 10 µM |
| CCc1nc(N)nc(N)c1C#CC(C)c1cc(OC)cc(-c2ccncc2)c1 (centres unmarked) [MMV1580844] | – | 0.53 ± 0.11 µM | > 10 | – | potency against B. mandrillaris, in words [3]: nanomolar potency |
| C(=C\c1nc2ccccc2[nH]1)/c1ccc2c(c1)OCO2 [MMV1582495] | – | 0.54 ± 0.04 µM | > 10 | – | potency against B. mandrillaris, in words [3]: nanomolar potency |
| N#Cc1c(F)c(Cl)c(NCc2ccccc2)c(C#N)c1F [MMV1582496] | 0.61 ± 0.35 | – | > 10 | – | potency against A. castellanii, in words [1]: nanomolar potency |
| O[C@@](Cn1cnnn1)(c1ccc(F)cc1F)C(F)(F)c1ccc(-c2ccc(OCC(F)(F)F)cc2)cn1 [MMV1634386] | 0.16 ± 0.09 | > 10 µM | > 10 | – | potency against A. castellanii, in words [1]: nanomolar potency; IC50 [2]: 2.4 ± 1.7 µM |
| Cc1ccc(N2CCC(CCOc3ccc(S(C)(=O)=O)cc3)CC2)nn1 [MMV1634394] | – | ≤ 10 µM and 8.05 µM | > 10 | – | – |
| Cc1nc2ccc(Oc3ccccc3)cc2c2c1CCN2CCc1ccccc1 [MMV1634399] | – | 0.73 ± 0.28 µM | > 10 | – | potency against B. mandrillaris, in words [3]: nanomolar potency |
| O=C(/C(=C/c1ccc(Cl)cc1Cl)n1ccnc1)c1ccc(Cl)cc1 [MMV1634491] | – | > 10 µM | > 10 | – | IC50 [2]: 5.15 ± 1.35 µM |
| O=C(/C=C\n1cnc(-c2cc(C(F)(F)F)cc(C(F)(F)F)c2)n1)NNc1cnccn1 [Selinexor] | – | 9.2 ± 1.13 µM | – | > 10 | IC50 ([3]; Balamuthia mandrillaris): ≤ 10 µM; Selectivity Index (A549 IC50/B. mandrillaris IC50) [3]: ≥1.09 |
| O=C(O)C(F)(F)F [Trifluoroacetic acid] | 1.97 ± 1 | – | – | – | IC50 ([1]; listed as trifluoroacetic acid): ≤ 10 µM; Selectivity Index (A549 IC50/A. castellanii IC50) [1]: ≥5.10; IC50 ([4]; Homo sapiens, A549, 72 h, read-out: A549 Mean IC50 (µM)): > 10 µM |
| CN1CCN(Cc2ccc(-c3cnc4[nH]cc(-c5ccc6[nH]ccc6c5)c4c3)cc2)CC1 [URMC-099-C] | – | 5.35 ± 1.63 µM | – | 4.2 | IC50 ([3]; Balamuthia mandrillaris): ≤ 10 µM; Selectivity Index (A549 IC50/B. mandrillaris IC50) [3]: 0.79 |
